Source: US20040019429A1, “Methods and systems for analyzing complex biological systems” (priority 2001, published 2004)

Key:
yeast cells = assay: AF1 combined gene expression and metabolite data mapped to KEGG reactions and pathways; design: species or system Saccharomyces cerevisiae
Source text: The pathway score indicates how meaningful the mapping is, or how likely it is to be correctly indicative of the pathway involved in the perturbation under examination. The method provides a pathway score based on perturbation levels of genes and/or compounds and the information content of each gene and/or compound in the pathway, i.e., a pathway score indicates the extent to which other pathways are mapped to a gene/compound. For example, imagine that two genes are perturbed in a particular experiment. One gene maps to only one pathway, giving a high degree of probability that the perturbed pathway is the one identified in the mapping. The second gene maps to three pathways. In the later example, there is only one-third the probability that the pathway identified in the mapping is the one perturbed. […] Degree of perturbation can be calculated, for example, based on a number of standard deviations from a norm, and included in an equation such as the one shown above, so that not only the number of pathways is taken into account, but also accounts for the amount of gene transcript, or compound present as compared to a control. […] KEGG links 676 compounds measured in AF1 to a total of 92 pathways. Of the 676 compounds under consideration, 77 were detected in the AF1 samples. […]

[1] = test system: Saccharomyces cerevisiae wild type strain BY4743; assay: AF1 yeast metabolite analysis by GC-MS and LC-MS after antifungal drug treatment; format: cell-based; settings: for # Compounds perturbed by treatment: 2X MIC, two hours
Arabidopsis thaliana [2] = assay: MOA1 phenotypic profiling of sprayed plants (eleven phenotypic characteristics); format: in vivo; settings: hierarchical cluster analysis of eleven phenotypic characteristics
Arabidopsis thaliana [3] = assay: MOA1 biochemical (metabolite) profiling by LC-MS and GC-MS; settings: 20 minutes and 1 hour after spraying

SMILES	Number Of Pathways Having at Least One Enzyme and One Compound Perturbed (# Reactions) (yeast cells)	Number of Reactions Having an Enzyme and at Least One Compound Perturbed (yeast cells)	# Compounds perturbed by treatment ([1]; P < 0.05)	# Compounds perturbed by treatment ([1]; P < 0.1)	Fold Change, abscisic acid ([1]; platform LC)	Fold Change, adenosine ([1]; platform LC)	Fold Change, riboflavin ([1]; platform LC)	Fold Change, selenoOLmethionine ([1]; platform nLC)	Phenotype and phenotypic clustering (in words) (Arabidopsis thaliana [2])	Regulated metabolites relative to control (in words) (Arabidopsis thaliana [3])
C[C@@H]1[C@H](O)[C@@H](C)/C=C/C=C/C=C/C=C/C=C/C=C/C=C/[C@H](O[C@@H]2O[C@H](C)[C@@H](O)[C@H](N)[C@@H]2O)C[C@@H]2O[C@](O)(C[C@@H](O)C[C@@H](O)[C@H](O)CC[C@@H](O)C[C@@H](O)CC(=O)O[C@H]1C)C[C@H](O)[C@H]2C(=O)O [Amphoteracin B]	37	54	16	21	0	0	0	0.8515		
CC(C)OC(=O)Nc1cccc(Cl)c1 [Chloropropham]									neither showed a strong herbicidal phenotype	neither butylate nor chlorpropham treatment resulted in many changes in these commonly regulated metabolites
